According to patent US8143889B2, “Simultaneous acquisitions of spin- and stimulated-echo planar imaging” (University of Utah Research Foundation, priority 2009, dated 2012):

Assays:
Assay type in all cases: physicochemical
[1] = T1 mapping of MnCl2/water phantom by inversion-recovery spin-echo (IR-SE) imaging and 2D ss-SGSTEPI; conditions: 3 Tesla
Description: (§1) MRI studies were performed on a Siemens Trio 3 Tesla MRI system (Siemens Medical Solutions, Erlangen, Germany) with Avanto gradients (45 mT/m strength and 150 T/m/s slew rate). The pulse sequence was developed based on a singleshot spin-echo EPI sequence, using the IDEA pulse sequence development environment. Realtime calculation of T1 mapping was implemented into a custom-made ICE program (Image Construction Environment). The image construction program produced two magnitude images, two phase images, and a T1 map for each slice.
A phantom was constructed with 4 plastic bottles filled with MnCl2/water solutions with concentrations of 0.05, 0.1, 0.2, and 0.4 mM, which were surrounded by jello. T1 mapping experiment was conducted using inversion-recovery spin-echo (IR-SE) imaging and 2D ss-SGSTEPI. T1 of each concentration of MnCl2/water solution were measured as 1.5, 0.89, 0.55, 0.35 sec for […], respectively.

[2] = T1 of MnCl2/water phantom by saturation-recovery spin-echo; conditions: 3 Tesla
Description: as §1
A phantom was constructed with four 20 cc plastic bottles filled with 0.05, 0.1, 0.2, and 0.4 mM MnCl2/water solutions, respectively, and immersed in jello in a rectangular acrylic container with dimensions 8×8×13 cm^3. The T1 of each concentration was 1.3, 0.9, 0.55, 0.35 sec for 0.05, 0.1, 0.2, 0.4 mM, respectively. T1 of the phantom was measured using saturation-recovery spin-echo.

[3] = T1 and turbo-FLASH signal intensity on phantom with different concentrations of Gd-BOPTA
Description: The results are plotted in FIG. 12. […] The dosage 0.1˜0.2 mM [PBCA]/kg is the routine dosage for DCE-MRI and local concentrations may easily exceed 0.2˜0.4 mM/kg in organs with high-blood supply or at the periphery of a tumor. The signal behavior of the gradient-echo MRI varies widely with the selection of TR, TE, and flipangle, and for T1. Although a set of these imaging parameters may be linear for a small range of PBCA concentrations and specific T1, it will not be linear for other T1 values. […] Thus, direct conversion of SI to the concentration is subject to large error, which will be propagated into the subsequent kinetic calculation. In contrast, the realtime T1 mapping provided by embodiments of the invention described above is linearly related to the PBCA concentration. Thus, the realtime T1 mapping provides accurate realtime estimation of the PBCA concentration resulting in improvement of the accuracy of drug-delivery or tumor evaluation.

T1 ([1]; 0.05 mM MnCl2/water solution) [s]	T1 ([1]; 0.1 mM MnCl2/water solution) [s]	T1 ([1]; 0.2 mM MnCl2/water solution) [s]	T1 ([1]; 0.5 mM MnCl2/water solution) [s]	T1 ([2]; 0.05 mM MnCl2/water solution) [s]	T1 ([2]; 0.1 mM MnCl2/water solution) [s]	T1 ([2]; 0.2 mM MnCl2/water solution) [s]	T1 ([2]; 0.4 mM MnCl2/water solution) [s]	T1 relaxation rate (1/T1) of the water proton vs. concentration ([3]; FIG. 12(b))	signal intensities of turboFLASH and spin-EPI vs. concentration ([3]; TR/TE=7.2/2.7 ms, flipangle 30°, FIG. 12(a))	SMILES
1.5	0.89	0.55	0.35	1.3	0.9	0.55	0.35	–	–	[Cl][Mn][Cl] [MnCl2]
–	–	–	–	–	–	–	–	very linear with the concentration	non-linear even at low concentration	CNC[C@H](O)[C@@H](O)[C@H](O)[C@H](O)CO.CNC[C@H](O)[C@@H](O)[C@H](O)[C@H](O)CO.O=C([O-])CN(CCN(CC(=O)[O-])CC(=O)O)CCN(CC(=O)O)C(COCc1ccccc1)C(=O)[O-].[Gd+3] (stereo not shown) [Gd-BOPTA, Gadobenate dimeglumine]
